We go through 12 compounds from patent US7166738B2, “Non-nucleoside reverse transcriptase inhibitors” (Roche Palo Alto LLC, priority 2004, dated 2007).

For the compound `Cc1cc(C#N)cc(C)c1Oc1cc(CC(=O)Nc2ccc(S(N)(=O)=O)cc2)ccc1Cl` [Compound I-55, 2-[4-Chloro-3-(4-cyano-2,6-dimethyl-phenoxy)-phenyl]-N-(4-sulfamoyl-phenyl)-acetamide], the melting point lay within 227.3 to 231.4 °C.
As for `CCc1ccc(CC(=O)Nc2ccc(S(N)(=O)=O)cc2)cc1Oc1cc(Cl)cc(Br)c1Cl` [Compound I-35, 2-[3-(3-Bromo-2,5-dichloro-phenoxy)-4-ethyl-phenyl]-N-(4-sulfamoyl-phenyl)-acetamide], the melting point was in the range of 206.9 to 209.9 °C.
The result for `COCCC(=O)N(C)S(=O)(=O)c1ccc(NC(=O)Cc2ccc(Cl)c(Oc3cc(Cl)cc(C#N)c3)c2F)c(Cl)c1` [Compound I-172, 2-[4-Chloro-3-(3-chloro-5-cyano-phenoxy)-2-fluoro-phenyl]-N-{2-chloro-4-[(3-methoxy-propionyl)-methyl-sulfamoyl]-phenyl}-acetamide] reads 199.3 to 203 °C; that for `COc1cc(CC(=O)Nc2ccc(S(N)(=O)=O)cc2Cl)cc(Oc2cc(Cl)cc(C#N)c2)c1` [Compound I-136, 2-[3-(3-Chloro-5-cyano-phenoxy)-5-methoxy-phenyl]-N-(2-chloro-4-sulfamoyl-phenyl)-acetamide], 159 to 161.1 °C.
The same measure for `Cc1cc(S(N)(=O)=O)ccc1NC(=O)Cc1ccc(Cl)c(Oc2cc(C#N)cc(C#N)c2)c1F` [Compound I-32, 2-[4-Chloro-3-(3,5-dicyano-phenoxy)-2-fluoro-phenyl]-N-(2-methyl-4-sulfamoyl-phenyl)-acetamide]: 248.4 to 250.8 °C.
The compound `Cc1cc(OCC[C@@H](O)CO)ccc1NC(=O)Cc1ccc(C)c(Oc2cc(Cl)cc(C#N)c2)c1` [Compound I-151, 2-[3-(3-Chloro-5-cyano-phenoxy)-4-methyl-phenyl]-N-[4-((R)-3,4-dihydroxy-butoxy)-2-methyl-phenyl]-acetamide] showed a melting point of 104.9 to 106.4 °C.
The result for `CCCC(=O)N(C)S(=O)(=O)c1ccc(NC(=O)Cc2ccc(Cl)c(Oc3cc(Cl)cc(C#N)c3)c2F)c(Cl)c1` [Compound I-139, N-[4-(Butyryl-methyl-sulfamoyl)-2-chloro-phenyl]-2-[4-chloro-3-(3-chloro-5-cyano-phenoxy)-2-fluoro-phenyl]-acetamide] reads 186.9 to 187.6 °C; that for `CCc1ccc(CC(=O)Nc2ccccc2Cl)cc1Oc1c(Cl)cccc1Cl` [Compound I-23, N-(2-Chloro-phenyl)-2-[3-(2,6-dichloro-phenoxy)-4-ethyl-phenyl]-acetamide], 107 to 110.5 °C.
The result for `Cc1cc(N2CCCS2(=O)=O)ccc1NC(=O)Cc1ccc(C)c(Oc2cc(Cl)cc(C#N)c2)c1` [Compound I-170, 2-[3-(3-Chloro-5-cyano-phenoxy)-4-methyl-phenyl]-N-[4-(1,1-dioxo-1λ^6-isothiazolidin-2-yl)-2-methyl-phenyl]-acetamide] reads 182.5 to 184.6 °C.
The same measure for `Cc1cc(S(=O)(=O)NC2CCC(O)CC2)ccc1NC(=O)Cc1ccc(C)c(Oc2cc(Cl)cc(C#N)c2)c1` (stereo not drawn) [Compound I-121, 2-[3-(3-Chloro-5-cyano-phenoxy)-4-methyl-phenyl]-N-[4-(4-hydroxy-cyclohexylsulfamoyl)-2-methyl-phenyl]-acetamide]: 195.1 to 197.7 °C.
`N#Cc1cc(Cl)cc(Oc2c(Cl)ccc(CC(=O)Nc3ccc(S(N)(=O)=O)cc3Cl)c2F)c1` [Compound I-100, 2-[4-Chloro-3-(3-chloro-5-cyano-phenoxy)-2-fluoro-phenyl]-N-(2-chloro-4-sulfamoyl-phenyl)-acetamide] displayed a melting point of 234.4 to 234.9 °C.
For `Cc1cc(C(=O)CN2CCOCC2)ccc1NC(=O)Cc1ccc(C)c(Oc2cc(Cl)cc(C#N)c2)c1.O=C(O)C(F)(F)F`, the melting point was in the range of 110.3 to 110.5 °C.

One may read the melting point as the temperature, or range, at which the solid turns liquid.
